This assay relates to PTDH ortholog from Nostoc sp. 7120. Nature of the assay: initial rate of NADH formation at […] nm, Michaelis-Menten fit. It is filed as biochemical, Nostoc sp. PCC 7120. The note with it: read-out: Nostoc sp. 7120, 100 mM MOPS pH 7.25, 30 °C.

In publication PMC3361975 (Biochemistry, 2012) one finds Km data, which are given here for two compounds.

Read-outs that look alike come from different tables or passages of the source.

For `NC(=O)c1ccc[n+]([C@@H]2O[C@H](COP(=O)(O)OP(=O)(O)OC[C@H]3O[C@@H](n4cnc5c(N)ncnc54)[C@H](O)[C@@H]3O)[C@@H](O)[C@H]2O)c1` [NAD^+], for the setting “co-substrate phosphite”, the Km is 10.3 µM. For `O=[PH](O)O` [phosphite], where the note is “co-substrate NAD+”, the Km came out at 20.2 µM.
